Test results taken from the OPERA property sets (Mansouri et al. 2018).

logP	SMILES
1.14	COc1cnc(OC)cn1
1.24	COc1nccnc1C
1.51	CCc1nccnc1CC
1.58	Clc1cnc(Cl)cn1
1.98	CCOc1cncc(OC)n1
1.65	COc1cnc(N(C)C)cn1
1.28	Cc1nc(C)c(C)nc1C
0.95	COc1cncc(C#N)n1
0.86	COc1ccnc(C#N)n1
1.2	CCOC(=O)c1cncc(OC)n1
0.13	COc1cncc(C(N)=O)n1
1.84	COC(=O)c1ccc(Br)o1
-0.25	Cc1cnc(C(N)=O)cn1
0.9	COC(=O)c1cncc(N(C)C)n1
1.24	CCOC(=O)c1cncc(N(C)C)n1
0.54	Cc1cncc(C)n1
1.57	CCCc1nccnc1C
1.99	COc1cncc(N(C)C)n1
0.82	COc1cncc(NC(C)=O)n1
0.1	COC(=O)c1cncc(C)n1

logP	SMILES
0.54	Cc1nccnc1C
0.38	CC(=O)Nc1cncc(C)n1
0.35	Cc1cncc(N)n1
1.81	CSc1nccnc1C
0.26	Cc1cnc(C#N)cn1
1.58	COc1cncc(OC)n1
0.61	CCOC(=O)c1cnc(C)cn1
0.51	CCOC(=O)c1cncc(C)n1
1.57	Cc1cncc(N(C)C)n1
0.44	Cc1cncc(C#N)n1
0.69	COC(=O)c1cncc(OC)n1
2.89	CCCCc1nc(C#N)c(C#N)nc1Cl
2.55	CCOc1cncc(OCC)n1
1.08	Cc1cnc(Cl)cn1
1.7	CN(C)c1cnc(Cl)cn1
1.79	CCc1nc(C#N)c(C#N)nc1Cl
2.24	Cc1nccnc1OC(C)C
1.07	CCc1nccnc1C
0.63	COc1cnc(N)cn1
0.56	CC(=O)Nc1cnc(Cl)cn1

logP	SMILES
0.17	COC(=O)c1cnc(C)cn1
1.12	CN(C)c1cncc(C#N)n1
0.73	COc1cncc(N)n1
-0.02	COC(=O)c1nccnc1C(=O)OC
0.95	Cc1cnc(C)c(C)n1
1.5	Cc1cnc(C)c(Cl)n1
1.99	CCOc1cnc(Cl)cn1
0.38	CN(C)c1cncc(C(N)=O)n1
0.61	CCOc1cncc(C(N)=O)n1
0.38	N#Cc1nccnc1C#N
0.65	CCOC(=O)c1nccnc1C(=O)OCC
2.1	CCCCc1nccnc1C
-0.45	Nc1cncc(N)n1
1.29	COc1cncc(C)n1
1.29	Cc1nc(C#N)c(C#N)nc1Cl
1.52	COc1cnc(Cl)cn1
1.95	CCc1ncc(C)nc1CC
-0.13	Cc1cncc(C(N)=O)n1
